Experimental data: patent US20260068882A1, “ARTHROPOD CONTROLLING COMPOSITION” (Firmenich SA, priority 2019, published 2026)
Where a name gives a salt, the structure may show the parent alone. Read-outs that look alike come from different tables or passages of the source.

Tests used:
Aedes aegypti = assay: In vitro Warm Body assay, mosquitoes landing on treated warm body; type: in vivo
Method: (§1) The arthropod controlling effect according to the present invention is determined on mosquitoes using an adapted Warm Body assay as defined in Kröber T, Kessler S, Frei J, Bourquin M, Guerin P M. An in vitro assay for testing mosquito controlling compounds employing a warm body and carbon dioxide as a behavioral activator. J Am Mosq Control Assoc. 2010; 26:381-386.
(§2) The controlling effect according to the present invention is determined by testing the Warm Body assay against the yellow fever mosquito, Aedes aegypti Rockefeller strain. […] Observations of controlling efficacy were made on host-seeking females of uniform age, 5 to 10 days old selected as mentioned in the publication mentioned hereinabove. Tested hungry females had access to 10% sugar solution but were not blood-fed.
(§3) The published protocol has been adapted in not manually counting the landing mosquitoes but automatically using an automatic counting software, the switch from Anopheles gambiae to A. aegypti led to a decrease of mosquitoes' number placed in the tested cage due to the size difference (i.e. 30 mosquitoes instead of 50) and to an increase of lighting as A. aegypti is a diurnal mosquitoes (i.e. 150 lux instead of 4 lux).
as §2, with “A.” for “Aedes”
as §1, with “The” for “The arthropod”, “was assessed” for “is determined on mosquitoes”
as §3, with “Aedes” for “A.”
In this in-vitro assay the number of A. aegypti landing on a warm body treated with the tested stimuli was measured in order to assess the repellency effect. Three replicates were carried on the three different doses: 0.0016%, 0.04% and 1% in ethanol, using 25 A. aegypti 10-12 days old females per cage.
In this in-vitro assay, the number of Aedes aegypti landing on a warm body treated with the tested stimuli was measured in order to assess the repellency effect. Three replicates were carried on the three different doses: 0.0016%, 0.04% and 1% in ethanol.
In this in-vitro assay, the number of Aedes aegypti landing on a warm body treated with the tested stimuli was measured in order to assess the repellency effect. One replicate was carried at different doses ranging from 0.0016% up to 1% in ethanol.

Ixodes ricinus = assay: In vitro Warm Plate Assay for ticks; type: in vivo; settings: for pest or weed control at 0.0016 % / pest or weed control at 0.04 % / pest or weed control at 1 % / pest or weed control at 0.2 %: Ixodes ricinus, read-out: percentage of ticks affected on the Warm Plate; for pest or weed control at 0.0016 %: 0.0016% (Table 11); for pest or weed control at 0.2 %: 0.2% (Table 10)
Method: Repellent efficacy of the different compounds was assessed against the sheep tick, Ixodes ricinus. I. ricinus is one of the recommended model organisms mentioned by the Guidance on the European Biological Products Regulation [Vol II, Efficacy-Assessment & Evaluation (Parts B+C), v. 3.0, April 2018]. Observations of repellent efficacy were made on last stage nymphs.
The repellent efficacy was assessed using the protocol of the in-vitro Warm Plate Assay as defined in Kröber T, Bourquin M, Guerin P M. A standardized in vivo and in vitro test method for evaluating tick repellents. Pesticide Biochemistry and Physiology. 2013; 107 (2): 160-168.].
The mean±SD number of ticks Ixodes ricinus walking down (affected), falling (affected) or walking-up (non affected) from the warm plate treated with ethanol, N,N-diethyl-3-methylbenzamide, (2,5-dimethyl-2,3-dihydro-1H-inden-2yl)methanol (Ingredient 2) or (2,4,6-trimethyl-2,3-dihydro-1H-inden-2-yl)methanol (Ingredient 1) diluted in ethanol at 0.4 mg/ml and 10 mg/mL was assessed on n groups of 12 ticks (n=2-5).
In this in-vitro assay, the percentage of ticks Ixodes ricinus affected by the stimulus loaded on the warm plate was measured in order to assess the repellency effect. Twelve ticks were assessed per concentrations that goes from 0.0016% up to 1% in ethanol.
Using the same in-vitro setup, the effect on ticks behavior (n≥12) of different stimuli diluted in ethanol at 20% (w/w) was assessed overtime.

[1] = Aedes aegypti, read-out: decrease of landings

**Q.** Which results are given for `Cc1ccc2c(c1)CC(C)(COC=O)C2` (stereo not shown) [(2,5-dimethyl-2-indanyl)methyl formate]?
**A.** pest or weed control at 0.0016 % (Aedes aegypti; [1]): 4 to 29%; pest or weed control at 0.0016 % (Ixodes ricinus): 0%; pest or weed control at 0.04 % (Ixodes ricinus; 0.04% (Table 11)): 7%; pest or weed control at 1 % (Ixodes ricinus; 1% (Table 11)): 85%

**Q.** For `Cc1ccc2c(c1)CC(CO)C2` (racemic) [(+−)-(5-methyl-2,3-dihydro-1H-inden-2-yl)methanol], which “number of mosquitoes landed on the Warm Body” value (“number of mosquitoes landed” below) (Aedes aegypti; 0.0016% in ethanol (Table 6)) is on record?
**A.** The value was 65.

**Q.** And the “number of mosquitoes landed” value (Aedes aegypti; 0.04% in ethanol (Table 6))?
**A.** Its value is 7.

**Q.** What about the “number of mosquitoes landed” value (Aedes aegypti; 1% in ethanol (Table 6)) of the same molecule?
**A.** Its value is 5.

**Q.** And the pest or weed control at 0.04 % (Ixodes ricinus; 0.04% (Table 10))?
**A.** The pest or weed control at 0.04 % was 0%.

**Q.** What about the pest or weed control at 0.2 % (Ixodes ricinus) of the same molecule?
**A.** Its pest or weed control at 0.2 % is 100%.

**Q.** And the pest or weed control at 1 % (Ixodes ricinus; 1% (Table 10))?
**A.** Its pest or weed control at 1 % is 100%.

**Q.** What about the “concentration at which the level of 85% of ticks affected is reached” value (Ixodes ricinus; Tables 10 and 12) of the same molecule?
**A.** Its value is 0.2%.

**Q.** Which pest or weed control at 0.04 % (Aedes aegypti; [1]) does the source give for `Cc1ccc2c(c1)CC(C)(C(C)O)C2` (stereo not shown) [1-(2,5-dimethyl-2-indanyl)-1-ethanol] here?
**A.** Its pest or weed control at 0.04 % is roughly 70%.

**Q.** And the pest or weed control at 0.0016 % (Ixodes ricinus)?
**A.** The pest or weed control at 0.0016 % was 15%.

**Q.** What about the pest or weed control at 0.04 % (Ixodes ricinus; 0.04% (Table 11)) of the same molecule?
**A.** The pest or weed control at 0.04 % was 0%.

**Q.** And the pest or weed control at 1 % (Ixodes ricinus; 1% (Table 11))?
**A.** Its pest or weed control at 1 % is 100%.

**Q.** Which results are given for `CC1(CO)Cc2ccc(C(C)(C)C)cc2C1` (racemic) [(+−)-5-tert-butyl-2-methyl-2-indanmethanol]?
**A.** repellent effect with increasing amount of stimuli (in words) (Aedes aegypti; 0.0016%, 0.04% and 1% in ethanol (FIG. 10)): low decrease of landing; pest or weed control at 0.0016 % (Ixodes ricinus): 0%; pest or weed control at 0.04 % (Ixodes ricinus; 0.04% (Table 11)): 8%; pest or weed control at 1 % (Ixodes ricinus; 1% (Table 11)): 92%

**Q.** Which “number of mosquitoes landed” value (Aedes aegypti; 0.0016% in ethanol (Table 6)) does the source give for `CC(=O)C1(C)Cc2ccc(C)c(C)c2C1` (racemic) [(+−)-1-(2,4,5-trimethyl-2,3-dihydro-1H-inden-2-yl)ethanone] here?
**A.** Its value is 31.

**Q.** What about the “number of mosquitoes landed” value (Aedes aegypti; 0.04% in ethanol (Table 6)) of the same molecule?
**A.** The value was 5.

**Q.** What about the “number of mosquitoes landed” value (Aedes aegypti; 1% in ethanol (Table 6)) of the same molecule?
**A.** Its value is 18.

**Q.** What about the pest or weed control at 0.04 % (Ixodes ricinus; 0.04% (Table 10)) of the same molecule?
**A.** Its pest or weed control at 0.04 % is 0%.

**Q.** What about the pest or weed control at 0.2 % (Ixodes ricinus) of the same molecule?
**A.** Its pest or weed control at 0.2 % is 38%.

**Q.** What about the pest or weed control at 1 % (Ixodes ricinus; 1% (Table 10)) of the same molecule?
**A.** Its pest or weed control at 1 % is 92%.
